Data set [1] concerns matrix-displayed aptamer (SEQ ID NO:11) on Biacore SA chip. Nature of the data set: Biacore SPR: loading and release from aptamer-coated SA chip. Format: binding. On the procedure:
For SPR experiments, Biacore X system and commercially available Biacore SA sensor chips from Biacore AB (Uppsala, Sweden) were used.
A 1 μM solution of aptamer aptamer 5′-/5BioTEG//iSp18//iSp18/ATCTCGGTCTCGGGACGACAGGATTTTCCTCAATGAAGTGGGTCGTCCCGAGA (SEQ ID NO:11) in 10 mM HEPES at pH 7.4, 150 mM NaCl, and 3 mM EDTA (in HBS-EP) was applied to one of the SA sensor chip's two channels for 20 min at 4 μL min^−1, followed by a 120 sec wash with 4 M urea/15 mM EDTA to remove any nonspecifically adsorbed material. The aptamer used for these SPR experiments was shorter by two bases relative to the aptamer used in the microsphere experiments (see SEQ ID NO:7). According to the Biacore SA chip literature, the matrix was a highly irregular 3D dextran hydrogel recognition matrix with a height of approximately 100-200 nm and an uneven distribution of streptavidin. The matrix was coated with biotinylated aptamer containing two 18-atom hexaethylene glycol spacers between the biotin and the oligonucleotide. On the basis of changes in SPR response, the aptamer was coated at saturation densities of 0.12-to-0.15 pmol mm^−2, an estimated average inter-aptamer distance of 10-to-11 nm (based on a 100 nm height for the dextran layer. 1.2-to-1.6 molecules of insulin-conjugate bound per aptamer on initial loading, with oligonucleotide binding (i.e. no insulin attached) at 1.2 per aptamer. Where possible, the channel with no aptamer or insulin-conjugate/oligonucleotide deposited acted as a blank for correction of system influence. When the additional channel was not able to be used as a blank, data for the first 10 minutes of any buffer change was omitted due to artifacts occurring in this time period caused by washes with the new buffer.
Matrix-Aptamer Hybridization with (5). (5) 1 μM in NaCl (140 mM), KCl (5 mM), and MgCl2 (1.2 mM), buffered to pH 7.4 with Tris (20 mM), was dispensed on the aptamer displaying channel at 1 μL min^−1 until saturation (80 min), with the other channel used as a system influence control when possible. Monitoring of conjugate (5) release was taken 15 minutes after the end of the conjugate (5) application time to allow for weak non-specifically bound conjugate to be washed from the surface. Conjugate dissociation in real time was measured through the decrease in mass, again using the formula 1000 R.U.=[…]. In some experiments, instrumental instabilities were observed as occasional spikes in sensorgrams during long-time monitoring.
Release of the insulin-conjugate (i→ii in FIG. 1A) was studied in two different systems: 1) release from a dextran matrix (SA-Chip, Biacore), under continuous flow, with surface plasmon resonance (SPR) monitoring, and 2) release from the surface of non-porous beads followed by fluorescence monitoring. […]
(SPR reads the build-up and loss of mass on a sensor chip optically.)

In data set [2] the test system is aptamer (SEQ ID NO:7) functionalized microspheres loaded with conjugate (5). Nature of the data set: Triggered release of insulin conjugate (5) from aptamer coated microspheres, fluorescence monitoring. On the procedure:
(for a biotin binding site:aptamer ratio of 5:1) Streptavidin functionalized magnetic microspheres (Bangs Laboratories), 2 mL, were washed with HEPES 10 mM/NaCl 150 mM/pH 7.4 buffer 3×2 mL, using a magnet to separate out the microspheres from the washings. The microspheres were suspended in 1 mL of the same buffer. The aptamer 5′-/5BioTEG//iSp18//iSp18/ATCTCGGTCTCGGGACGACAGGATTTTCCTCAATGAAGTGGGTCGTCCCGAGACC-3′ (SEQ ID NO:7) (IDT, Coralville, Iowa, USA), 2 nmoles, was dissolved in 10 mL of the buffer and added slowly drop-wise to the microsphere suspension under continuous shaking. The mixture was incubated for one hour and then washed 3×, once with a 1 mL volume then twice with 200 μL volumes after transfer to a 1.5 mL microcentrifuge tube. The washed microspheres were resuspended in 1 mL of buffer and stored at 4° C. until use. For a biotin binding site:aptamer ratio of 1:1, i.e. saturated, 800 μL of microspheres were prepared as above, with the exception that they were resuspended in 400 uL of buffer with 8 nmoles of aptamer then added.
Aptamer functionalized microspheres (200 uL containing 0.4 nmoles of aptamer were washed 1×200 μL of binding buffer and then resuspended in 100 μl of the same buffer. The insulin-PEO12-oligonucleotide conjugate in 0.5 nmoles, in 37 μL of water, was added to the suspension and incubated, with constant mixing by inversion, overnight at room temperature, protected from light.
All release experiments were carried out in water containing NaCl (140 mM), KCl (5 mM), and MgCl2 (1.2 mM), buffered to pH 7.4 with Tris (20 mM). Streptavidin coated microspheres were mixed with biotinylated aptamer to obtain aptamer coated microspheres, see above for detailed preparation. […] On addition of six micromolar quinine at three and one half hours an additional pulse with analogous characteristics of the first pulse was observed. A third analogous pulse can be triggered using eighteen micromolar quinine. […]

Another data set concerns the target cocaine aptamer MNS-1. Nature of the data set: Fluorescence screening of FDA approved drugs against fluorescein-labeled aptamer MNS-1 with DABCYL quencher oligonucleotide 1-Q. The data set is classed as binding. The settings on record: 20 mM Tris-HCl pH 7.4, 50 nM MNS-1, 150 nM 1-Q, 30 min incubation. On the procedure: Oligonucleotides MNS-1 and 1-Q were custom-made and HPLC purified by Integrated DNA Technologies, Inc (Coralville, Iowa, USA) and were used as received. The base sequence for MNS-1 is: 5′-fluorescein-ATCTCGGGACGACAGGATTTTCCTCAATGAAGTGGGTCGTCCC (SEQ ID NO:4), and 1-Q is: 5′-GTC GTC CCG AGA T-dabcyl (SEQ ID NO:5). All compounds (except cocaine) were purchased from Sigma-Aldrich Co. (St. Louis, Mo., USA). All measurements were performed in 20 mM Tris-HCl pH 7.4, 140 mM NaCl, 5 mM KCl, 2 mM MgCl2. Mixture of MNS-1 and 1-Q was incubated for 5 min at room temperature, then a series of standard dilutions of all compounds were added to the mixture solutions of MNS-1 and 1-Q to final concentrations of 50 nM and 150 nM respectively. Measurements were performed after an incubation time of 30 min. The measurements were performed on a Perkin-Elmer Victor II microplate reader (Wallac, Finland) with a 485-nm excitation filter and a 535-nm emission filter. […]

In a further data set the test system is Spiegelmer (L-MNS). Nature of the data set: Spiegelmer (L-MNS) binding of quinine. The conditions noted are these: same conditions as MNS-1/1-Q. The text has this:
) binding of quinine. […] from ChemGenes (Wilmington, Mass.). Note that the sequence and label are same as mns-1, 1-Q, measurement conditions and concentrations were also the same (see FIG. 4, and Materials and Methods section in Example section 6). […] Oligonucleotides MNS-1 and 1-Q were custom-made and HPLC purified by Integrated DNA Technologies, Inc (Coralville, Iowa, USA) and were used as received. The base sequence for MNS-1 is: 5'-fluorescein-[NT] ID NO:4), and 1-Q is: 5'-[NT]-dabcyl (SEQ ID NO:5). […] (St. Louis, Mo., USA). All measurements were performed in 20 mM Tris-HCl pH 7.4, 140 mM NaCl, 5 mM KCl, 2 mM MgCl2. […] Measurements were performed after an incubation time of 30 min. The measurements were performed on a Perkin-Elmer Victor II microplate reader (Wallac, Finland) with a 485-nm excitation filter and a 535-nm emission filter.

For data set [3], the system named is rat hepatoma cell insulin signaling pathways (McA-RH7777). The data set is described as follows: Tissue culture and insulin signaling assay. The data set is classed as cell-based. The settings on record: 100 nM for 10 min, McA-RH7777 cells, in triplicate. On the procedure: McA-RH7777, rat hepatoma cells were grown in DMEM media with 20% fetal bovine serum. Cells were incubated in serum-free medium for 5 hours and treated with insulin and insulin-oligonucleotide conjugate at the concentration of 100 nM for 10 min. Cell lysates were prepared in SDS lysis buffer (2% SDS, 62.5 mM Tris HCL (pH 6.8), 10% glycerol, 50 mM DTT, 0.01% Bromophenol Blue). All antibodies were purchased from Cell Signaling Technology (Danvers, Mass.).

These results are taken from patent publication US9243024B2, “Aptamer-mediated drug release” (priority 2009, dated 2016).

As to “5′-TCTCGGGACGACCCACTTCATTG-3′ (TCTCGGGACGACCCACTTCATTG; listed as DNA, chemistry not given here) [oligonucleotide inhibitor]”, in data set [1] (1 μM inhibitor, SPR), the “blocking of insulin-conjugate release in the presence of quinine” value is recorded as “block the release of the insulin-conjugate”.

As to `C[C@]12CCC(=O)C=C1CC[C@@H]1[C@@H]2[C@@H](O)C[C@@]2(C)[C@H]1CC[C@]2(O)C(=O)COC(=O)CCC(=O)O` [hydrocortisone-21-hemisuccinate (HHS), hydrocortisone-21-hemisuccinate], the “triggering of insulin conjugate release from microspheres” value in data set [2] (250 μM, soaking for a total of 60 minutes) is “sluggishly”; in data set [2] (higher concentrations than 250 μM), “significant release of the conjugate”.

On to `C=C[C@H]1C[N@@]2CC[C@H]1C[C@H]2[C@H](O)c1ccnc2ccc(OC)cc12` [quinine], for which the Kd (commonly the constant that tells how readily two partners part at equilibrium) at cocaine aptamer MNS-1 is about 600 nM. Further, the “triggered release of (5) from microspheres” value in data set [2] (two micromolar quinine, pH 7.4) was “a pulse of (5) was released”. Further, the “insulin-conjugate boluses by escalating quinine concentrations” value in data set [1] (0, 2 and 8 μM quinine, or 1.5, 6 and 18 μM after pre-washing the chip, SPR) is “desired profile with three postprandial boluses”. Also, in the data set with Spiegelmer (L-MNS), the “binding to the spiegelmer of the aptamer” value is “bound to the spiegelmer of the aptamer”.

Turning to “Fluorescein-5′-GTC GTC CCG AGA CCG AGA T-3′-L1-Insulin [insulin conjugate]”, the “activity of insulin conjugate on insulin signaling” value in data set [3] was “full activity”. In data set [1] (SA chip (Biacore), fitted from 15 to 25 minutes), the “line of best fit slope of initial rate data for dissociation” value is reported as −0.1399 fmol mm^−2 min^−1. Besides, the “observed initial dissociation rate” value in data set [1] (SA chip (Biacore), no quinine) turned out to be 0.14 fmol mm^−2 min^−1.
